Test results reported in patent publication US20140357512A1, “HISTONE DEACETYLASE (HDAC) BIOMARKERS IN MULTIPLE MYELOMA” (priority 2013, published 2014).

Test system: human myeloma cell line MM.1S
Test: Biological pathway analysis of SILAC biomarker peptides against pathway database (broadinstitute gsea)
Description: Once biomarker peptides are identified for a specific drug by the SILAC method, the biomarker peptides may be compared to peptides/proteins in a biological pathway database in order to identify major biological pathways or functions implicated by the drug's action. A preferred pathway analysis website is at www dot broadinstitute dot org/gsea/index dot jsp.
This example describes the biological pathway analysis that was performed on each of Compound A, Compound B, and Tubastatin A.
Once biomarker peptides were identified for a specific drug (either Compound A, Compound B, or Tubastatin A) by the SILAC method in Example 1, the biomarker peptides were compared to peptides/proteins in the biological pathway database at www dot broadinstitute dot org/gsea/index dot jsp in order to identify major biological pathways or functions implicated by the drug's action.

With `O=C(CCCCCCNC(=O)c1cnc(N(c2ccccc2)c2ccccc2)nc1)NO` [Compound A, 2-(diphenylamino)-N-(7-(hydroxyamino)-7-oxoheptyl)pyrimidine-5-carboxamide] the “Observed: number of genes in pathway REACTOME_PACKAGING_OF_TELOMERE_ENDS” value (Pathway_size 48) was 35, the “Ratio observed/pathway size, REACTOME_PACKAGING_OF_TELOMERE_ENDS” value (Pathway_size 48) was 0.7292 and the “Observed: number of genes in pathway REACTOME_RNA_POL_I_PROMOTER_OPENING” value (Pathway_size 61) was 49. For the same compound, the “Ratio observed/pathway size, REACTOME_RNA_POL_I_PROMOTER_OPENING” value (Pathway_size 61) was 0.8033, the “Observed: number of genes in pathway REACTOME_DEPOSITION_OF_NEW_CENPA_CONTAINING_NUCLEOSOMES_AT_THE_CENTROMERE” value (Pathway_size 64) was 34 and the “Ratio observed/pathway size, REACTOME_DEPOSITION_OF_NEW_CENPA_CONTAINING_NUCLEOSOMES_AT_THE_CENTROMERE” value (Pathway_size 64) was 0.5312. The “Observed: number of genes in pathway […]_UNKNOWN” value (Pathway_size 66) was 32, the “Ratio observed/pathway size, […]_UNKNOWN” value (Pathway_size 66) was 0.4848 and the “Observed: number of genes in pathway GCM_TPT1” value (Pathway_size 70) was 37. For the same compound, the “Ratio observed/pathway size, GCM_TPT1” value (Pathway_size 70) was 0.5286, the “Observed: number of genes in pathway REACTOME_MEIOTIC_SYNAPSIS” value (Pathway_size 71) was 35 and the “Ratio observed/pathway size, REACTOME_MEIOTIC_SYNAPSIS” value (Pathway_size 71) was 0.493. For the same compound, the “Observed: number of genes in pathway REACTOME_TELOMERE_MAINTENANCE” value (Pathway_size 75) was 36, the “Ratio observed/pathway size, REACTOME_TELOMERE_MAINTENANCE” value (Pathway_size 75) was 0.48 and the “Observed: number of genes in pathway STRUCTURAL_CONSTITUENT_OF_RIBOSOME” value (Pathway_size 80) was 33. The “Ratio observed/pathway size, STRUCTURAL_CONSTITUENT_OF_RIBOSOME” value (Pathway_size 80) was 0.4125, the “Observed: number of genes in pathway MIPS_RIBOSOME_CYTOPLASMIC” value (Pathway_size 81) was 42 and the “Observed: number of genes in pathway REACTOME_AMYLOIDS” value (Pathway_size 81) was 49. For the same compound, the “Ratio observed/pathway size, MIPS_RIBOSOME_CYTOPLASMIC” value (Pathway_size 81) was 0.5185, the “Ratio observed/pathway size, REACTOME_AMYLOIDS” value (Pathway_size 81) was 0.6049 and the “Observed: number of genes in pathway REACTOME_MEIOTIC_RECOMBINATION” value (Pathway_size 84) was 50. The “Ratio observed/pathway size, REACTOME_MEIOTIC_RECOMBINATION” value (Pathway_size 84) was 0.5952, the “Observed: number of genes in pathway REACTOME_RNA_POL_I_TRANSCRIPTION” value (Pathway_size 86) was 50 and the “Ratio observed/pathway size, REACTOME_RNA_POL_I_TRANSCRIPTION” value (Pathway_size 86) was 0.5814. For the same compound, the “Observed: number of genes in pathway KEGG_RIBOSOME” value (Pathway_size 88) was 42, the “Ratio observed/pathway size, KEGG_RIBOSOME” value (Pathway_size 88) was 0.4773 and the “Observed: number of genes in pathway MORF_TPT1” value (Pathway_size 102) was 40. For the same compound, the “Ratio observed/pathway size, MORF_TPT1” value (Pathway_size 102) was 0.3922, the “Observed: number of genes in pathway MIPS_NOP56P_ASSOCIATED_PRE_RRNA_COMPLEX” value (Pathway_size 104) was 44 and the “Ratio observed/pathway size, MIPS_NOP56P_ASSOCIATED_PRE_RRNA_COMPLEX” value (Pathway_size 104) was 0.4231. For the same compound, the “Observed: number of genes in pathway REACTOME_MEIOSIS” value (Pathway_size 112) was 50, the “Ratio observed/pathway size, REACTOME_MEIOSIS” value (Pathway_size 112) was 0.4464 and the “Observed: number of genes in pathway GCM_NPM1” value (Pathway_size 116) was 41. For the same compound, the “Ratio observed/pathway size, GCM_NPM1” value (Pathway_size 116) was 0.3534, the “Observed: number of genes in pathway REACTOME_RNA_POL_I_RNA_POL_III_AND_MITOCHONDRIAL_TRANSCRIPTION” value (Pathway_size 119) was 50 and the “Ratio observed/pathway size, REACTOME_RNA_POL_I_RNA_POL_III_AND_MITOCHONDRIAL_TRANSCRIPTION” value (Pathway_size 119) was 0.4202. For the same compound, the “Observed: number of genes in pathway GNF2_EIF3S6” value (Pathway_size 121) was 41, the “Ratio observed/pathway size, GNF2_EIF3S6” value (Pathway_size 121) was 0.3388 and the “Observed: number of genes in pathway GCM_ACTG1” value (Pathway_size 124) was 39. The “Ratio observed/pathway size, GCM_ACTG1” value (Pathway_size 124) was 0.3145, the “Observed: number of genes in pathway MORF_ACTG1” value (Pathway_size 138) was 53 and the “Ratio observed/pathway size, MORF_ACTG1” value (Pathway_size 138) was 0.3841. For the same compound, the “Observed: number of genes in pathway KEGG_SYSTEMIC_LUPUS_ERYTHEMATOSUS” value (Pathway_size 139) was 54, the “Ratio observed/pathway size, KEGG_SYSTEMIC_LUPUS_ERYTHEMATOSUS” value (Pathway_size 139) was 0.3885 and the “Observed: number of genes in pathway REACTOME_PEPTIDE_CHAIN_ELONGATION” value (Pathway_size 145) was 41. The “Ratio observed/pathway size, REACTOME_PEPTIDE_CHAIN_ELONGATION” value (Pathway_size 145) was 0.2828, the “Observed: number of genes in pathway MORF_NME2” value (Pathway_size 154) was 48 and the “Ratio observed/pathway size, MORF_NME2” value (Pathway_size 154) was 0.3117. For the same compound, the “Observed: number of genes in pathway REACTOME_INFLUENZA_VIRAL_RNA_TRANSCRIPTION_AND_REPLICATION” value (Pathway_size 161) was 42, the “Ratio observed/pathway size, REACTOME_INFLUENZA_VIRAL_RNA_TRANSCRIPTION_AND_REPLICATION” value (Pathway_size 161) was 0.2609 and the “Observed: number of genes in pathway MORF_NPM1” value (Pathway_size 162) was 59. The “Ratio observed/pathway size, MORF_NPM1” value (Pathway_size 162) was 0.3642, the “Observed: number of genes in pathway REACTOME_3_UTR_MEDIATED_TRANSLATIONAL_REGULATION” value (Pathway_size 166) was 43 and the “Ratio observed/pathway size, REACTOME_3_UTR_MEDIATED_TRANSLATIONAL_REGULATION” value (Pathway_size 166) was 0.259. The “Observed: number of genes in pathway REACTOME_NONSENSE_MEDIATED_DECAY_ENHANCED_BY_THE_EXON_JUNCTION_COMPLEX” value (Pathway_size 167) was 41, the “Ratio observed/pathway size, REACTOME_NONSENSE_MEDIATED_DECAY_ENHANCED_BY_THE_EXON_JUNCTION_COMPLEX” value (Pathway_size 167) was 0.2455 and the “Observed: number of genes in pathway REACTOME_SRP_DEPENDENT_COTRANSLATIONAL_PROTEIN_TARGETING_TO_MEMBRANE” value (Pathway_size 170) was 46. For the same compound, the “Ratio observed/pathway size, REACTOME_SRP_DEPENDENT_COTRANSLATIONAL_PROTEIN_TARGETING_TO_MEMBRANE” value (Pathway_size 170) was 0.2706, the “Observed: number of genes in pathway REACTOME_INFLUENZA_LIFE_CYCLE” value (Pathway_size 195) was 47 and the “Ratio observed/pathway size, REACTOME_INFLUENZA_LIFE_CYCLE” value (Pathway_size 195) was 0.241. For the same compound, the “Observed: number of genes in pathway MORF_ANP32B” value (Pathway_size 197) was 43, the “Ratio observed/pathway size, MORF_ANP32B” value (Pathway_size 197) was 0.2183 and the “Observed: number of genes in pathway REACTOME_TRANSCRIPTION” value (Pathway_size 207) was 53. The “Ratio observed/pathway size, REACTOME_TRANSCRIPTION” value (Pathway_size 207) was 0.256, the “Observed: number of genes in pathway REACTOME_TRANSLATION” value (Pathway_size 211) was 48 and the “Ratio observed/pathway size, REACTOME_TRANSLATION” value (Pathway_size 211) was 0.2275. For the same compound, the “Observed: number of genes in pathway MORF_UBE2I” value (Pathway_size 238) was 55, the “Ratio observed/pathway size, MORF_UBE2I” value (Pathway_size 238) was 0.2311 and the “Observed: number of genes in pathway MORF_RAN” value (Pathway_size 268) was 53. For the same compound, the “Ratio observed/pathway size, MORF_RAN” value (Pathway_size 268) was 0.1978, the “Observed: number of genes in pathway MODULE_151” value (Pathway_size 318) was 61 and the “Ratio observed/pathway size, MODULE_151” value (Pathway_size 318) was 0.1918. The “Observed: number of genes in pathway MODULE_83” value (Pathway_size 320) was 65, the “Ratio observed/pathway size, MODULE_83” value (Pathway_size 320) was 0.2031 and the “Observed: number of genes in pathway MODULE_114” value (Pathway_size 338) was 64. The “Ratio observed/pathway size, MODULE_114” value (Pathway_size 338) was 0.1893, the “Observed: number of genes in pathway HSIAO_HOUSEKEEPING_GENES” value (Pathway_size 389) was 87 and the “Ratio observed/pathway size, HSIAO_HOUSEKEEPING_GENES” value (Pathway_size 389) was 0.2236. For the same compound, the “Observed: number of genes in pathway MOOTHA_HUMAN_MITODB_6_2002” value (Pathway_size 429) was 66, the “Ratio observed/pathway size, MOOTHA_HUMAN_MITODB_6_2002” value (Pathway_size 429) was 0.1538 and the “Observed: number of genes in pathway MOOTHA_MITOCHONDRIA” value (Pathway_size 447) was 57. The “Ratio observed/pathway size, MOOTHA_MITOCHONDRIA” value (Pathway_size 447) was 0.1275, the “Observed: number of genes in pathway REACTOME_METABOLISM_OF_PROTEINS” value (Pathway_size 496) was 69 and the “Ratio observed/pathway size, REACTOME_METABOLISM_OF_PROTEINS” value (Pathway_size 496) was 0.1391. For the same compound, the “Observed: number of genes in pathway KIM_BIPOLAR_DISORDER_OLIGODENDROCYTE_DENSITY_CORR_UP” value (Pathway_size 681) was 64, the “Ratio observed/pathway size, KIM_BIPOLAR_DISORDER_OLIGODENDROCYTE_DENSITY_CORR_UP” value (Pathway_size 681) was 0.09398 and the “Observed: number of genes in pathway MARTENS_TRETINOIN_RESPONSE_DN” value (Pathway_size 841) was 69. The “Ratio observed/pathway size, MARTENS_TRETINOIN_RESPONSE_DN” value (Pathway_size 841) was 0.08205, the “Observed: number of genes in pathway GRADE_COLON_CANCER_UP” value (Pathway_size 870) was 75 and the “Ratio observed/pathway size, GRADE_COLON_CANCER_UP” value (Pathway_size 870) was 0.08621. The “Observed: number of genes in pathway DANG_BOUND_BY_MYC” value (Pathway_size 1102) was 88, the “Ratio observed/pathway size, DANG_BOUND_BY_MYC” value (Pathway_size 1102) was 0.07985 and the “Observed: number of genes in pathway BLALOCK_ALZHEIMERS_DISEASE_DN” value (Pathway_size 1237) was 81. For the same compound, the “Ratio observed/pathway size, BLALOCK_ALZHEIMERS_DISEASE_DN” value (Pathway_size 1237) was 0.06548, the “Observed: number of genes in pathway CYTOPLASMIC_PART” value (Pathway_size 1383) was 96 and the “Ratio observed/pathway size, CYTOPLASMIC_PART” value (Pathway_size 1383) was 0.06941. The “Observed: number of genes in pathway PUJANA_BRCA1_PCC_NETWORK” value (Pathway_size 1651) was 107, the “Ratio observed/pathway size, PUJANA_BRCA1_PCC_NETWORK” value (Pathway_size 1651) was 0.06481 and the “Observed: number of genes in pathway CYTOPLASM” value (Pathway_size 2130) was 117. The “Ratio observed/pathway size, CYTOPLASM” value (Pathway_size 2130) was 0.05493.
